Measurements from patent publication US11382985B2, “Anti-tumour immune responses to modified self-epitopes” (Scancell Limited, priority 2015, dated 2022).
Square brackets hold non-standard residues; d marks the D form. Ends that are not written are not given here. Cit = NC(=O)NCCC[C@H](N)C(=O)O

Columns and labels:
[1] = tested on: splenocytes; test: Peptide immunisation and ex vivo Elispot, DP4 mice; format: in vivo, HHD/HLA-DP4 transgenic mouse
Protocol: (§1) C57BL/6 mice (Charles River, UK), HLA-DR4 mice (Taconic, USA), HHDII/DR1 mice (Pasteur institute, France) and the HHD/HLA-DP4 transgenic strain of mouse as described in patent WO2013/017545 A1 (EMMA repository, France) were used, aged between 8 and 12 weeks, and cared for by the staff at Nottingham Trent University. All work was carried out under a Home Office project licence. Peptides were dissolved in PBS to 1 mg/ml and then emulsified (a series of dilutions) with different adjuvants: CpG and MPLA 6 μg/mouse of each (Invivogen, UK), Incomplete Freund's 50 μl/mouse (Sigma, UK), poly I:C 10 μg/mouse (Invivogen, UK), Imiquimod 25 μg/mouse (Invivogen, UK) and GMCSF 10 μg/mouse (Peprotech, UK). Peptides (25 μg/mouse) were injected subcutaneously at the base of the tail. DNA (1 μg/mouse) was coated onto 1.0 μm gold particles (BioRad, Hemel Hempstead, UK) using the manufacturer's instructions and administered intradermally by genegun (BioRad). Homspera (10 nM/mouse) (PeptideSynthetics, UK) was injected intradermally with genegun immunisation. Mice were immunized at either day 0 for peptide immunisation or days, 0 and 7 for genegun immunisation, unless otherwise stated. Spleens were removed for analysis at day 14 for peptide and day 20 for peptide or genegun immunisation unless stated otherwise.
Elispot assays were performed using murine IFNγ, IL-17 and IL-10 capture and detection reagents according to the manufacturer's instructions (Mabtech, Sweden). In brief, anti-IFNγ, IL-17 and IL-10 antibodies were coated onto wells of 96-well Immobilin-P plate. Synthetic peptides (at a variety of concentrations) and 5×10^5 per well splenocytes were added to the wells of the plate in triplicate. Tumour target cells were added where relevant at 5×10^4/well in triplicate and plates incubated for 40 hrs at 37° C. After incubation, captured IFN and IL-10 were detected by biotinylated anti-IFNγ and IL-10 antibodies and developed with a streptavidin alkaline phosphatase and chromogenic substrate. Spots were analysed and counted using an automated plate reader (Cellular Technologies Ltd).

[2] = tested on: B16DP4 tumour; test: B16DP4 melanoma tumour challenge; format: in vivo, DP4 transgenic mice; conditions: peptide immunisation after B16DP4 implant; unimmunized 10%
Protocol: as §1, with “Homspera (10 nM/mouse) (PeptideSynthetics, UK) was injected intradermally with genegun immunisation. Mice were immunized at either day 0 for peptide immunisation or days, 0 and 7 for genegun immunisation, unless otherwise stated. Spleens were removed for analysis at day 14 for peptide and day 20 for peptide or genegun immunisation unless stated otherwise.” left out
For tumour challenge experiments mice were challenged with 2.5×10^4 B16 DR4 cells or 1×10^6 LLC2/LLC2 DR4 cells, 2.5×10^5 Pan02 DR4 cells in matrigel or 4×10^5 B16 HHDII DP4 cells subcutaneously on the right flank 3 days prior to primary immunisation and then were immunised as above. Tumour growth was monitored at 3-4 days intervals and mice were humanely euthanized once tumour reached ≥10 mm in diameter.

[3] = tested on: PBMCs; test: Thymidine proliferation assay on healthy donor PBMCs; format: cell-based, human; conditions: for healthy donors showing a proliferative response: PBMCs from 6 healthy donors, peptide 10 μg/ml, days 4, 7, 11
Protocol: PBMC were isolated from freshly drawn heparinised blood by Ficol-Hypaque (Sigma) gradient centrifugation. PBMC (1.5×10^6 cells/well) were stimulated with single peptides (final concentration 10 μg/ml) in RPMI containing 5% pooled autologous human serum, 2 mM glutamine, 20 mM HEPES and Penicillin-streptomycin (1%) in a final volume of 2 ml. Stimulation with purified protein derivative, PPD (final concentration 10 μg/ml) served as a positive control for the proliferative capacity of PBMC. As a negative control PBMC were incubated with medium alone. The PBMC were cultured at 37° C. in an atmosphere of 5% CO2 for 4, 7 and 11 days. To assess proliferation at these times points 100 μl in triplicate from each culture was aliquoted into a round bottom well of a 96 well plate and 3H-thymidine added (0.0185 MBq/well) and incubated at 37° C. for a further 8 hours. The cultures were harvested onto unifilter plates and incorporation of ^3H-thymidine was determined by β-scintillation counting. The results were assessed by calculating the stimulation index (SI) as the ratio of the mean of counts per minute (cpm) of epitope-stimulated to the mean of unstimulated cultures. The proliferative assay was considered positive when SI >2.5.

[4] = tested on: PBMCs; test: Luminex cytokine analysis of PBMC culture supernatants; format: cell-based, human
Protocol: A three-step indirect procedure was used for the multiplexed Luminex assay (Invitrogen) for IgG antibodies to IL-10, IL-17, IFNy, TNFα, IL-2 & IL-4. Standard, control, and unknown sera were diluted 1:2 in 50% assay diluent buffer (Invitrogen) & 50% serum free RPMI. Serial standard dilutions were included in each assay. Each dilution of standard, control, and unknown sera was mixed with a set of coupled Luminex microspheres in 96-well filtration plates (Millipore Multiscreen; Millipore Corporation, Bedford, Mass.) and incubated for 2 hours at room temperature with shaking. Microspheres were collected by vacuum filtration and washed with PBST. Biotinylated detector antibody was added to each well for 1 hour at room temperature with shaking. Microspheres were collected by vacuum filtration and washed with PBST. Streptavidin conjugated R-phycoerythrin—was added to each well. Following a 30 minute incubation and a wash step, microspheres were resuspended in PBST, and read in a Biorad BioPlex Luminex analyzer equipped with an XY platform. Data acquisition and analysis performed with Luminex software (BioPlex Systems)

[5] = tested on: PBMCs; test: CFSE proliferation assay on PBMCs; format: cell-based, human; conditions: Donor 4, day 10
Protocol: PBMC were isolated from freshly drawn heparinised blood by Ficol-Hypaque (Sigma) gradient centrifugation. PBMC (1.5×10^6 cells/well) were stimulated with single peptides (final concentration 10 μg/ml) in RPMI containing 5% pooled autologous human serum, 2 mM glutamine, 20 mM HEPES and Penicillin-streptomycin (1%) in a final volume of 2 ml. As a negative control PBMC were incubated with medium alone. The PBMC were cultured at 37° C. in an atmosphere of 5% CO2 for 7 and 10 days. To assess proliferation at these times points cells were sampled and stained with surface marker CD4 and CD8 antibodies labelled with PE-Cy5 and efluor 450 respectively. After staining cells were fixed and analysed on a Milteny MACSQuant flow cytometer.

[6] = tested on: splenocytes; test: Peptide immunisation and ex vivo Elispot, DP4 mice; format: in vivo, HHD/HLA-DP4 transgenic mouse; conditions: DP4 mice immunised with human 241-260cit
[7] = DP4 mice immunised with human 241-260cit

In the case of “VIGMDVAASEFF-CIT-SGKYDLD (VIGMDVAASEFF[Cit]SGKYDLD; listed as Homo sapiens) [Enolase 241cit]”, the “IFNγ response in presence of CD4 blocking antibody” value [1, 7] is reported as “blocked”, the “IFNγ response in presence of CD8 blocking antibody” value [1, 7] is reported as “not” and the “IFNγ response to shorter peptide spanning aa241-255” value [1, 7] is reported as “show cross reactivity”. For the same substance, the “IL-10 in response to the cit peptide” value [1, 7] was “no IL-10”, the “IFNγ response compared to the wild type peptides” value ([1]; DP4 mice, three doses of human Enolase 241cit, label = restimulating peptide) was “increased IFNγ responses” and the “IFNγ response in combination with imiquimod” value ([1]; DP4 transgenic mice) was “induces IFNγ responses”. The “IFNγ response in combination with poly I:C” value ([1]; DP4 transgenic mice) was “induces IFNγ responses”, the “IL-10 response in combination with poly I:C” value ([1]; DP4 transgenic mice) was “no IL-10” and the “survival rate after 60 days” value [2] was 70%. For the same substance, the “proliferation index, mean” value ([3]; Donor 1, day 4) was 0.8, the “proliferation index, mean” value ([3]; Donor 1, day 7) was 28.6 and the “proliferation index, mean” value ([3]; Donor 1, day 11) was 20.4. For the same substance, the “proliferation index, mean” value ([3]; Donor 2, day 11) was 2.7, the “proliferation index, mean” value ([3]; Donor 4, day 4) was 12.5 and the “proliferation index, mean” value ([3]; Donor 4, day 7) was 28. The proliferation index ([3]; Donor 4, day 11) was 4.4, the proliferative response ([3]; Donor 6) was “non-responder” and the “healthy donors showing a proliferative response” value [3] was 5/6. For the same substance, the “healthy donors showing a proliferative response” value ([3]; listed as Enolase 241-260 citrullinated at position 253) was 4/6, the “IL-17, Granzyme B and TNFα levels above media background” value ([4]; Donor 4 supernatants) was “higher” and the “IFNγ and IL-10 levels above media background” value ([4]; Donor 4 supernatants at each time point) was “citrullinated peptide specific responses which increased over time”. The IFNγ response ([4]; cultures on 3 donors) was “IFNγ responses”, the “IL-10, TNFα or IL-17 responses” value ([4]; cultures on 3 donors) was “low level” and the “IL-17 production by normal donors” value ([4]; normal donors stimulated with peptide) was “no IL-17 was produced”. For the same substance, the “lymphocytes that are CFSE^lowCD4^+” value [5] was 15% and the “granzyme B release in response to the cit peptide” value [6] was “show granzyme B release”.
